Assay [1] addresses T1, murine CCR2 (Mus musculus, UniProt P51683).
T1 construct: host or cells: U2OS β-arrestin cell line
Nature of the assay: Functional β-arrestin recruiting test with human MCP-1 (B-2a). It is filed as cell-based. Conditions: U2OS β-arrestin cell line transfected with murine CCR2; agonist human MCP-1 at EC50 (about 3 nM); in some cases means of several determinations. Here is the method: The antagonistic action of test substances on CCR2 was determined in a β-arrestin test. The PathHunter β-arrestin GPCR test system (DiscoveRx Corporation, Ltd.) is a cell-based functional method for detecting binding of β-arrestin to an activated receptor. The molecular basis is a […] complementation measured by the enzymatic conversion of a chemiluminescent substrate. The test cell used was a U2OS β-arrestin cell line transfected with murine CCR2 (93-0543C3, DiscoveRx Corporation, Ltd.).
The test substances were dissolved in dimethyl sulphoxide (DMSO) at a concentration of 10 mM and serially diluted with DMSO in steps of 1:3.16 for a 10-point dose/activity analysis. According to the desired test concentrations, the substances were pre-diluted in Tyrode with 2 mM CaCl2 and 0.05% BSA.
The cells, cultivated in MEM Eagle (supplemented with 10% FCS, 50 U/ml of penicillin, 50 μg/ml of streptomycin, 250 μg/ml of hygromycin and 500 μg/ml of geniticin), were sown at 2000 cells/25 μl in 384 well, μCLEAR/black cell culture plates from Greiner (#781092) and incubated at 37° C. for 24 h. The sowing medium consisted of Opti-MEM (supplemented with 1% FCS, 50 U/ml of penicillin and 50 μg/ml of streptomycin). The cells were pre-incubated for 10 min with 10 μl of the test substances diluted in buffer, and 10 μl of agonist solution [human MCP-1 (PeproTech, #300-04) in Tyrode with 0.05% BSA) were then added. The human MCP-1 was employed at the concentration which corresponds to the EC50 which had been determined in a preliminary test (usually about 3 nM). After 90 min of incubation at 37° C., the solution was removed, and recruitment of β-arrestin to CCR2 was detected with the aid of the PathHunter detection reagent (93-001, DiscoveRx Corporation, Ltd.) according to the instructions of the manufacturer. Luminescence was measured after an incubation time of 60 min using a proprietary luminescence imaging measuring instrument. The molar concentration of the test substance which caused 50% inhibition of the MCP-1 effect (IC50) was determined using a 4-parameter logistic function (Hill function).

Assay [2] addresses T2, human CCR2 (Homo sapiens, UniProt P41597).
T2 construct: host or cells: Chem-1 cell line
T2 sequence (P41597 1-360 isoform P41597-2): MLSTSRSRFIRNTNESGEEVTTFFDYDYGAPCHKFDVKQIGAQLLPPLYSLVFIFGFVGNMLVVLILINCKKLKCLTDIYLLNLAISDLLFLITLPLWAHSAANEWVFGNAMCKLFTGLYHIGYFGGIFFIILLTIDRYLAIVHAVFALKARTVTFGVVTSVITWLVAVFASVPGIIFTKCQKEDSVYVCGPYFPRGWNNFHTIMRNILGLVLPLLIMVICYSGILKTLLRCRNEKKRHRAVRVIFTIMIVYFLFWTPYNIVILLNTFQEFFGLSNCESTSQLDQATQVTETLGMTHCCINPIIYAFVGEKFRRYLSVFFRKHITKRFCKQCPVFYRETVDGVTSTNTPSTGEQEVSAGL
Briefly: Functional Ca2+ release test (B-1). It is filed as cell-based. The conditions noted are these: Chem-1 cell line transfected with human CCR2; 50% inhibition of the MCP-1 effect, MCP-1 at EC50 (about 5 nM); in some cases means of several determinations. Put shortly:
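Chem-1 cells expressing human CCR2, loaded with Fluo-4 for 60 min at 37° C, were preincubated 10 min with compound (10-point, 1:3.16 dilutions), then stimulated with MCP-1 at its predetermined EC50 (about 5 nM). Ca2+ release was monitored for 120 s. IC50 came from a 4-parameter Hill fit.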

The source of these data is patent publication US20160237059A1, “HETEROCYCLIC SUBSTITUTED TRIFLUOROMETHYL PYRIMIDINONES AND THEIR USE” (BAYER PHARMA AKTIENGESELLSCHAFT, priority 2013, published 2016).

Counter-ions that a name gives are not always drawn.

T1 sequence (P51683 whole entry): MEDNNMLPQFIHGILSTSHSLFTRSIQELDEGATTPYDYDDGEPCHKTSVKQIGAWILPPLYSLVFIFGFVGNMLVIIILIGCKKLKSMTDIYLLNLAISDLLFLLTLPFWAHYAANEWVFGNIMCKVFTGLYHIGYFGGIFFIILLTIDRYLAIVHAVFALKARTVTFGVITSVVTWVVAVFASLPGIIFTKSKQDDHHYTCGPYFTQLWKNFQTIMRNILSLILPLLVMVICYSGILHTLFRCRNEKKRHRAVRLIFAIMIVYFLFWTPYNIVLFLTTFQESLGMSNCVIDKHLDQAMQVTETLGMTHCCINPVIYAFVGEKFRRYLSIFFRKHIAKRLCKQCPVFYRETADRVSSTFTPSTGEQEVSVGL

The term IC50 denotes the concentration that gives 50% inhibition. The low end stands for higher potency, the high end for lower potency. Turning to `O=c1[nH]c(-c2ccccn2)nc(C(F)(F)F)c1Cc1ccc(Cl)c(Cl)c1` [Example 1, 5-(3,4-Dichlorobenzyl)-2-(pyridin-2-yl)-6-(trifluoromethyl)pyrimidin-4(3H)-one], the IC50 was found to be 110 nM in assay [1] and 3.5 nM in assay [2].

In the case of `Nc1cccc(-c2nc(C(F)(F)F)c(Oc3ccc(Cl)c(Cl)c3)c(=O)[nH]2)n1` [Example 43, 2-(6-aminopyridin-2-yl)-5-(3,4-dichlorophenoxy)-6-(trifluoromethyl)pyrimidin-4(3H)-one], the results for the concentration for half-maximal inhibition (IC50) in assay [1] and in assay [2] were 220 nM and 6.6 nM, respectively.

For the compound `O=c1[nH]c(-c2cc[nH]n2)nc(C(F)(F)F)c1Cc1ccc(Cl)c(Cl)c1` [Example 50, 5-(3,4-dichlorobenzyl)-2-(1H-pyrazol-3-yl)-6-(trifluoromethyl)pyrimidin-4(3H)-one], the values for the IC50 in assay [1] and in assay [2] were 4.7 nM and 0.2 nM, respectively.

Take `O=c1[nH]c(-c2ncccc2F)nc(C(F)(F)F)c1Cc1ccc(Cl)c(C(F)(F)F)c1` [Example 34, 5-[4-chloro-3-(trifluoromethyl)benzyl]-2-(3-fluoropyridin-2-yl)-6-(trifluoromethyl)pyrimidin4(3H)-one]: the IC50 in assay [1] amounted to 110 nM; in assay [2] it was 2.7 nM.

Turning to `Nc1nc[nH]c1-c1nc(C(F)(F)F)c(Oc2ccc(Cl)c(C(F)(F)F)c2)c(=O)[nH]1` [Example 69, 2-(4-amino-1H-imidazol-5-yl)-5-[4-chloro-3-(trifluoromethyl)phenoxy]-6-(trifluoromethyl)pyrimidin-4(3H)-one], the 50% inhibitory concentration (IC50) in assay [1] came out at 1100 nM; in assay [2], 130 nM.

With `COc1cccnc1Nc1nc(C(F)(F)F)c(Oc2ccc(Cl)c(Cl)c2)c(=O)[nH]1` [Example 102, 5-(3,4-dichlorophenoxy)-2-[(3-methoxypyridin-2-yl)amino]-6-(trifluoromethyl)pyrimidin-4(3H)-one], the IC50 in assay [1] came out at 260 nM; in assay [2], 150 nM.

On to `Cn1nccc1-c1nc(C(F)(F)F)c(Oc2ccc(Cl)c(Cl)c2)c(=O)[nH]1` [Example 56, 5-(3,4-dichlorophenoxy)-2-(1-methyl-1H-pyrazol-5-yl)-6-(trifluoromethyl)pyrimidin-4(3H)-one], for which the concentration for half-maximal inhibition (IC50) came out at 900 nM in assay [1] and 38 nM in assay [2].

On to `CCOC(=O)c1nc(-c2nc(C(F)(F)F)c(Oc3ccc(Cl)c(Cl)c3)c(=O)[nH]2)no1` [Example 260, Ethyl 3-[5-(3,4-dichlorophenoxy)-6-oxo-4-(trifluoromethyl)-1,6-dihydropyrimidin-2-yl]-1,2,4-oxadiazole-5-carboxylate x N,N-diisopropylethylamine], for which the figures for the IC50 in assay [1] and in assay [2] were 120 nM and 13 nM, respectively.

Take `O=c1[nH]c(Cc2cccnc2)nc(C(F)(F)F)c1Cc1ccc(Cl)c(Cl)c1` [Example 98, 5-(3,4-dichlorobenzyl)-2-(pyridin-3-ylmethyl)-6-(trifluoromethyl)pyrimidin-4(3H)-one]: the IC50 in assay [1] was 460 nM; in assay [2], 120 nM.

`Nc1[nH]ncc1-c1nc(C(F)(F)F)c(Cc2ccc(Cl)c(Cl)c2)c(=O)[nH]1` [Example 60, 2-(5-amino-1H-pyrazol-4-yl)-5-(3,4-dichlorobenzyl)-6-(trifluoromethyl)pyrimidin-4(3H)-one]: the values for the IC50 in assay [1] and in assay [2] were 180 nM and 91 nM, respectively.

Consider `Cc1n[nH]c(Cc2nc(C(F)(F)F)c(Cc3ccc(Cl)c(Cl)c3)c(=O)[nH]2)n1` [Example 99, 5-(3,4-Dichlorobenzyl)-2-[(3-methyl-1H-1,2,4-triazol-5-yl)methyl]-6-(trifluoromethyl)pyrimidin-4(3H)-one], for which the values for the concentration for half-maximal inhibition (IC50) in assay [1] and in assay [2] were 630 nM and 72 nM, respectively.

With `COCc1nc(-c2nc(C(F)(F)F)c(Oc3ccc(Cl)c(Cl)c3)c(=O)[nH]2)no1` [Example 81, 5-(3,4-dichlorophenoxy)-2-[5-(methoxymethyl)-1,2,4-oxadiazol-3-yl]-6-(trifluoromethyl)pyrimidin-4(3H)-one x N,N-diisopropylethylamine], the IC50 in assay [1] is 110 nM; in assay [2], 19 nM.

Consider `Nc1[nH]ncc1-c1nc(C(F)(F)F)c(Oc2ccc(Cl)c(Cl)c2)c(=O)[nH]1` [Example 62, 2-(5-amino-1H-pyrazol-4-yl)-5-(3,4-dichlorophenoxy)-6-(trifluoromethyl)pyrimidin-4(3H)-one trifluoroacetate], for which the results for the concentration for half-maximal inhibition (IC50) in assay [1] and in assay [2] were 140 nM and 110 nM, respectively.

For the compound `Cn1ncc(-c2nc(C(F)(F)F)c(Oc3ccc(Cl)c(Cl)c3)c(=O)[nH]2)c1N` [Example 68, 2-(5-amino-1-methyl-1H-pyrazol-4-yl)-5-(3,4-dichlorophenoxy)-6-(trifluoromethyl)pyrimidin-4(3H)-on], the half-inhibitory concentration (IC50) in assay [1] was found to be 310 nM; in assay [2], 27 nM.

Turning to `O=c1[nH]c(-c2cccc(O)n2)nc(C(F)(F)F)c1Oc1ccc(Cl)c(C(F)(F)F)c1` [Example 30, 5-[4-chloro-3-(trifluoromethyl)phenoxy]-2-(6-hydroxypyridin-2-yl)-6-(trifluoromethyl)pyrimidin-4(3H)-one], the IC50 in assay [1] came out at 530 nM; in assay [2], 140 nM.

In the case of `Nc1oc(=O)sc1-c1nc(C(F)(F)F)c(Cc2ccc(Cl)c(Cl)c2)c(=O)[nH]1` [Example 46, 2-(5-Amino-2-oxo-1,3-oxathiol-4-yl)-5-(3,4-dichlorobenzyl)-6-(trifluoromethyl)pyrimidin-4(3H)-one], the IC50 in assay [1] is 230 nM; in assay [2], 59 nM.

For the compound `O=c1[nH]c(N2CCCC2)nc(C(F)(F)F)c1Cc1ccc(Cl)c(Cl)c1` [Example 175, 5-(3,4-dichlorobenzyl)-2-(pyrrolidin-1-yl)-6-(trifluoromethyl)pyrimidin-4(3H)-one], the IC50 worked out at 1400 nM in assay [1] and 360 nM in assay [2].

Consider `Nc1nc[nH]c1-c1nc(C(F)(F)F)c(Oc2ccc(Cl)c(Cl)c2)c(=O)[nH]1` [Example 64, 2-(4-amino-1H-imidazol-5-yl)-5-(3,4-dichlorophenoxy)-6-(trifluoromethyl)pyrimidin-4(3H)-one], for which the values for the half-inhibitory concentration (IC50) in assay [1] and in assay [2] were 6500 nM and 320 nM, respectively.

With `O=c1[nH]c(-c2ccc(Cl)cn2)nc(C(F)(F)F)c1Oc1ccc(Cl)c(Cl)c1` [Example 8, 2-(5-chloropyridin-2-yl)-5-(3,4-dichlorophenoxy)-6-(trifluoromethyl)pyrimidin-4(3H)-one], the IC50 was determined as 180 nM in assay [1] and 3.9 nM in assay [2].

With `O=c1[nH]c(-c2cc(O)ccn2)nc(C(F)(F)F)c1Oc1ccc(Cl)c(C(F)(F)F)c1` [Example 33, 5-[4-chloro-3-(trifluoromethyl)phenoxy]-2-(4-hydroxypyridin-2-yl)-6-(trifluoromethyl)pyrimidin-4(3H)-one], the IC50 in assay [1] is 650 nM; in assay [2], 46 nM.

With `Cc1cc(C)n(-c2nc(C(F)(F)F)c(Cc3ccc(Cl)c(Cl)c3)c(=O)[nH]2)n1` [Example 57, 5-(3,4-dichlorobenzyl)-2-(3,5-dimethyl-1H-pyrazol-1-yl)-6-(trifluoromethyl)pyrimidin-4(3H)-one], the values for the 50% inhibitory concentration (IC50) in assay [1] and in assay [2] were 1300 nM and 83 nM, respectively.

`Cc1cc(-c2nc(C(F)(F)F)c(Cc3ccc(Cl)c(Cl)c3)c(=O)[nH]2)nn1C` [Example 55, 5-(3,4-dichlorobenzyl)-2-(1,5-dimethyl-1H-pyrazol-3-yl)-6-(trifluoromethyl)pyrimidin-4(3H)-one]: the IC50 worked out at 110 nM in assay [1] and 4.4 nM in assay [2].

Turning to `O=c1[nH]c(Cc2ccncc2)nc(C(F)(F)F)c1Cc1ccc(Cl)c(Cl)c1` [Example 93, 5-(3,4-dichlorobenzyl)-2-(pyridin-4-ylmethyl)-6-(trifluoromethyl)pyrimidin-4(3H)-one], the IC50 worked out at 370 nM in assay [1] and 83 nM in assay [2].
